Measured values from article PMC10459042, “Synthesis of 1,2,3-Triazole-Containing Methoxylated Cinnamides and Their Antileishmanial Activity against the Leishmania braziliensis Species” (Pharmaceuticals, 2023).

What was measured:
[1] = tested on: Leishmania braziliensis stationary promastigotes; assay: In vitro antileishmanial activity against promastigotes (MTT); assay type: cell-based; conditions: Leishmania braziliensis; 48 h at 24 °C, MTT, mean ± standard deviation
Experimental: The study was approved by the Committee for the Ethical Handling of Research Animals from the Federal University of Minas Gerais (protocol number 085/2017). Leishmania braziliensis (MHOM/BR/1975/M2904) promastigotes were grown at 24 °C in Schneider’s medium (Sigma-Aldrich, USA) supplemented with 20% heat-inactivated fetal bovine serum (FBS, Sigma-Aldrich, USA) and 20 mmol/L L-glutamine at pH 7.4 [65].
(§1) The in vitro antileishmanial activity was evaluated by incubating the promastigotes or axenic amastigotes (1 × 10^6 cells/well) with the 24 synthetic derivatives (Compounds 5–28; 0 to 600 µg/mL) in 96-well culture plates (Nunc, Nunclon, Roskilde, Denmark) for 48 h at 24 °C. Due to the difficulty in obtaining a high concentration of murine macrophages, the cytotoxicity experiment was evaluated by incubating such cells (5 × 10^5 per mL) with Compound 28 (0 to 600 µg/mL), which presented the best antileishmanial activity, for 48 h at 37 °C in a 5% CO2 environment. AmpB (0 to 10 µg/mL; Sigma-Aldrich, St. Louis, MO, USA) was used as a positive control in both experiments. The cell viability was assessed using the 3-(4.5-dimethylthiazol-2-yl)-2.5-diphenyl tetrazolium bromide (MTT, Sigma-Aldrich, St. Louis, MO, USA) method. The optical density (OD) values were read using a microplate spectrophotometer (Molecular Devices, Spectra Max Plus, San Jose, CA, USA) at 570 nm. Results were entered into Microsoft Excel (version 10.0) spreadsheets, and the 50% Leishmania and macrophage inhibitory concentrations (IC50 and CC50, respectively) were calculated by applying a sigmoidal regression of the dose–response curve. The SI was calculated by dividing the CC50 with the respective IC50 values.

[2] = tested on: Leishmania braziliensis axenic amastigotes; assay: In vitro antileishmanial activity against axenic amastigotes (MTT); assay type: cell-based; conditions: Leishmania braziliensis, 48 h, 48 h at 24 °C, MTT, mean ± standard deviation
Experimental: To obtain the axenic amastigotes, 1 × 10^9 stationary promastigotes were washed three times in sterile phosphate-buffered saline (PBS) and incubated in 5 mL FBS for 48 h at 37 °C. Parasites were washed with cold PBS, and their morphology was evaluated with an optical microscope after Giemsa staining as previously described.
as §1

COc1ccc(/C=C/C(=O)NCc2cn(Cc3ccc(C)cc3)nn2)cc1 [Compound 5, N-((1-(4-methylbenzyl)-1H-1,2,3-triazol-4-yl)methyl) (4-methoxy) Cinnamide]
IC50 [1]: > 600 µg/mL | IC50 [2]: > 600 µg/mL | melting point: 166 to 167.2 °C

COc1ccc(/C=C/C(=O)NCc2cn(Cc3ccc(C(C)C)cc3)nn2)cc1 [Compound 6, N-((1-(4-isopropylbenzyl)-1H-1,2,3-triazol-4-yl)methyl) (4-methoxy) cinnamide]
IC50 [1]: > 600 µg/mL | IC50 [2]: > 600 µg/mL | melting point: 187.4 to 188.3 °C

COc1ccc(/C=C/C(=O)NCc2cn(Cc3ccc(F)cc3)nn2)cc1 [Compound 7, N-((1-(4-fluorobenzyl)-1H-1,2,3-triazol-4-yl)methyl) (4-methoxy) cinnamide]
IC50 [1]: > 600 µg/mL | IC50 [2]: > 600 µg/mL | melting point: 178.6 to 180 °C

COc1ccc(/C=C/C(=O)NCc2cn(Cc3ccc(Cl)cc3)nn2)cc1 [Compound 8, N-((1-(4-chlorobenzyl)-1H-1,2,3-triazol-4-yl)methyl) (4-methoxy) cinnamide]
IC50 [1]: > 600 µg/mL | IC50 [2]: > 600 µg/mL | melting point: 185.7 to 186.5 °C

COc1ccc(/C=C/C(=O)NCc2cn(Cc3ccc(Br)cc3)nn2)cc1 [Compound 9, N-((1-(4-bromobenzyl)-1H-1,2,3-triazol-4-yl)methyl) (4-methoxy) cinnamide]
IC50 [1]: > 600 µg/mL | IC50 [2]: > 600 µg/mL | melting point: 193.1 to 194.7 °C

COc1ccc(/C=C/C(=O)NCc2cn(Cc3ccc(I)cc3)nn2)cc1 [Compound 10, N-((1-(4-iodobenzyl)-1H-1,2,3-triazol-4-yl)methyl) (4-methoxy) cinnamide]
IC50 [1]: > 600 µg/mL | IC50 [2]: > 600 µg/mL | melting point: 200.6 to 202 °C

COc1ccc(/C=C/C(=O)NCc2cn(Cc3ccc([N+](=O)[O-])cc3)nn2)cc1 [Compound 11, N-((1-(4-nitrobenzyl)-1H-1,2,3-triazol-4-yl)methyl) (4-methoxy) cinnamide]
IC50 [1]: > 600 µg/mL | IC50 [2]: > 600 µg/mL | melting point: 192.2 to 193.4 °C

COc1ccc(/C=C/C(=O)NCc2cn(Cc3ccc(OC)cc3)nn2)cc1 [Compound 12, N-((1-(4-methoxybenzyl)-1H-1,2,3-triazol-4-yl)methyl) (4-methoxy) cinnamide]
IC50 [1]: > 600 µg/mL | IC50 [2]: > 600 µg/mL | melting point: 169 to 170.2 °C

COc1ccc(/C=C/C(=O)NCc2cn(Cc3ccc(OC(F)(F)F)cc3)nn2)cc1 [Compound 13, N-((1-(4-(trifluoromethoxy)benzyl)-1H-1,2,3-triazol-4-yl)methyl) (4-methoxy) cinnamide]
IC50 [1]: > 600 µg/mL | IC50 [2]: > 600 µg/mL | melting point: 191.4 to 193 °C

COc1ccc(/C=C/C(=O)NCc2cn(Cc3ccc(C(F)(F)F)cc3)nn2)cc1 [Compound 14, N-((1-(4-(trifluoromethyl)benzyl)-1H-1,2,3-triazol-4-yl)methyl) (4-methoxy) cinnamide]
IC50 [1]: > 600 µg/mL | IC50 [2]: > 600 µg/mL | melting point: 220.5 to 221.9 °C

COc1ccc(/C=C/C(=O)NCc2cn(Cc3ccc(F)c(F)c3)nn2)cc1 [Compound 15, N-((1-(3,4-difluorobenzyl)-1H-1,2,3-triazol-4-yl)methyl) (4-methoxy) cinnamide]
IC50 [1]: > 600 µg/mL | IC50 [2]: > 600 µg/mL | melting point: 166.3 to 167.7 °C

COc1ccc(/C=C/C(=O)NCc2cn(Cc3ccc(C)cc3)nn2)cc1OC [Compound 16, N-((1-(4-methylbenzyl)-1H-1,2,3-triazol-4-yl)methyl) (3,4-dimethoxy) cinnamide]
IC50 [1]: > 600 µg/mL | IC50 [2]: > 600 µg/mL | melting point: 191.6 to 192.2 °C

COc1ccc(/C=C/C(=O)NCc2cn(Cc3ccc(C(C)C)cc3)nn2)cc1OC [Compound 17, N-((1-(4-isopropylbenzyl)-1H-1,2,3-triazol-4-yl)methyl) (3,4-dimethoxy) cinnamide]
IC50 [1]: > 600 µg/mL | IC50 [2]: > 600 µg/mL | melting point: 175.5 to 176.4 °C

COc1ccc(/C=C/C(=O)NCc2cn(Cc3ccc(F)cc3)nn2)cc1OC [Compound 18, N-((1-(4-fluorobenzyl)-1H-1,2,3-triazol-4-yl)methyl) (3,4-dimethoxy) cinnamide]
IC50 [1]: > 600 µg/mL | IC50 [2]: > 600 µg/mL | melting point: 174.8 to 175.5 °C

COc1ccc(/C=C/C(=O)NCc2cn(Cc3ccc(Cl)cc3)nn2)cc1OC [Compound 19, N-((1-(4-chlorobenzyl)-1H-1,2,3-triazol-4-yl)methyl) (3,4-dimethoxy) cinnamide]
IC50 [1]: > 600 µg/mL | IC50 [2]: > 600 µg/mL | melting point: 189.6 to 190.8 °C

COc1ccc(/C=C/C(=O)NCc2cn(Cc3ccc(Br)cc3)nn2)cc1OC [Compound 20, N-((1-(4-bromobenzyl)-1H-1,2,3-triazol-4-yl)methyl) (3,4-dimethoxy) cinnamide]
IC50 [1]: > 600 µg/mL | IC50 [2]: > 600 µg/mL | melting point: 198.2 to 199.6 °C

COc1ccc(/C=C/C(=O)NCc2cn(Cc3ccc(I)cc3)nn2)cc1OC [Compound 21, N-((1-(4-iodobenzyl)-1H-1,2,3-triazol-4-yl)methyl) (3,4-dimethoxy) cinnamide]
IC50 [1]: > 600 µg/mL | IC50 [2]: > 600 µg/mL | melting point: 194 to 194.9 °C

COc1ccc(/C=C/C(=O)NCc2cn(Cc3ccc([N+](=O)[O-])cc3)nn2)cc1OC [Compound 22, N-((1-(4-nitrobenzyl)-1H-1,2,3-triazol-4-yl)methyl) (3,4-dimethoxy) cinnamide]
IC50 [1]: > 600 µg/mL | IC50 [2]: > 600 µg/mL | melting point: 217.6 to 218.9 °C

COc1ccc(Cn2cc(CNC(=O)/C=C/c3ccc(OC)c(OC)c3)nn2)cc1 [Compound 23, N-((1-(4-methoxybenzyl)-1H-1,2,3-triazol-4-yl)methyl) (3,4-dimethoxy) cinnamide]
IC50 [1]: > 600 µg/mL | IC50 [2]: > 600 µg/mL | melting point: 171.2 to 172 °C

COc1ccc(/C=C/C(=O)NCc2cn(Cc3ccc(OC(F)(F)F)cc3)nn2)cc1OC [Compound 24, N-((1-(4-(trifluoromethoxy)benzyl)-1H-1,2,3-triazol-4-yl)methyl) (3,4-dimethoxy) cinnamide]
IC50 [1]: > 600 µg/mL | IC50 [2]: > 600 µg/mL | melting point: 177.4 to 178.6 °C

COc1ccc(/C=C/C(=O)NCc2cn(Cc3ccc(C(F)(F)F)cc3)nn2)cc1OC [Compound 25, N-((1-(4-(trifluoromethyl)benzyl)-1H-1,2,3-triazol-4-yl)methyl) (3,4-dimethoxy) cinnamide]
IC50 [1]: > 600 µg/mL | IC50 [2]: > 600 µg/mL | melting point: 196.4 to 197.6 °C

COc1ccc(/C=C/C(=O)NCc2cn(Cc3ccc(F)c(F)c3)nn2)cc1OC [Compound 26, N-((1-(3,4-difluorobenzyl)-1H-1,2,3-triazol-4-yl)methyl) (3,4-dimethoxy) cinnamide]
IC50 [1]: > 600 µg/mL | IC50 [2]: > 600 µg/mL | melting point: 166 to 167.2 °C

CCN(CC)c1ccc2cc(-n3cc(CNC(=O)/C=C/c4ccc(OC)cc4)nn3)c(=O)oc2c1 [Compound 27, N-((1-(7-(diethylamino)-2-oxo-2H-chromen-3-yl)-1H-1,2,3-triazol-4-yl)methyl) (4-methoxy) cinnamide]
IC50 [1]: > 600 µg/mL | IC50 [2]: > 600 µg/mL | melting point: 191.3 to 192.7 °C
